# Key:
# [1] = tested on: exosomes of heterochronic cultures; test: Exosome production and RNA content in heterochronic culture with AGO2 inhibitor; type: cell-based, human
# Method: Exosomes were isolated from cell culture media by the Total Exosome Isolation Kit (Life Technologies), using a modified version of the manufacturer's protocol. Briefly, 7-day isochronic and heterochronic cultures were established with Exosome-depleted FBS Media Supplement (System Biosciences), and culture media collected on the 4th and 7th days. Cells were pelleted and supernatant transferred to another tube for further clarification at 2000 g for 30 min to remove residual cells and debris. The remaining supernatant was transferred to a fresh tube and 0.5 volumes of Total Exosome Isolation reagent added for overnight incubation at 4° C. The following day samples were centrifuged at 10,000 g for 1 hr at 4° C. to pellet the exosomes for subsequent nanoparticle tracking analysis (NTA) or long-term storage at −80° C. […] For NTA, exosomes were re-suspended in 0.5 mL of PBS and measured using the following parameters: Temperature=25.6+/−0.5° C.; Viscosity=(Water) 0.99+/−0.01 cP; Measurement time=30 sec; Syringe pump speed=30. […]
# Total RNA from exosomes and cells was isolated using the miRCURY RNA Isolation Kit (Exiqon) with small and large RNAs fractionated with the RNeasy MinElute Cleanup Kit (Qiagen), both according to manufacturer's recommended specifications. […] Mapped reads from individual samples were then compared to determine fold change for each miRNA. […]
# Aged TNCs = test: Viability and cell count of aged TNCs cultured with CaMKP inhibitor (Trypan blue exclusion); type: cell-based, human
# Method: Aged TNCs (20×10^6 cells per sample) were cultured with CaMKP inhibitor (FT-0640107 shown below) at the following concentrations 25 uM, 10 uM, 5 uM, 1 uM & 0 (vehicle). After 48 and 72 hours, cells were harvested, counted using Turk's solution and percent viability assessed using Trypan blue exclusion.
# At 72 hours following treatment with the CaMPK inhibitor, FT-0640107, or vehicle, cells were harvested, counted and viability measured using Trypan blue exclusion.
# aged cells = test: Clonogenic assay (CFU-GM) of aged cells after miRNA mimic, siRNA or exosome treatment; type: cell-based, human; conditions: overexpression of candidate miRNAs in aged isochronic cultures, vs negative control RNA
# Text: Aged TNCs (10×10^6 cells per sample) were nucleofected with microRNA mimics (Qiagen), miRNA inhibitors (Qiagen), negative control siRNA (Qiagen), negative control miRNA inhibitor (Qiagen) or downstream target candidate siRNAs (Origene) using the Amaxa P3 Primary Cell 4D-Nucleofector X Kit (Lonza) on a 4D Nucleofector device (Lonza), according to manufacturer's specific protocol. Briefly, for nucleofection of CD34+ cells used in clonogenic assays, cells were nucleofected with 60 nmol total miRNA mimics, miRNA inhibitors or siRNA using the “human CD34+ cell” program. For nucleofection of T cells used in T cell activation and cell-mediated cytotoxicity assays, cells were nucleofected with 240 nmol total miRNA mimics, miRNA inhibitors or siRNA using the “human unstimulated T cell, high functionality” program.
# restored cells = test: Transwell co-culture of donor and receiver cell samples in presence or absence of manumycin; type: cell-based, human
# Text: Receiver cell samples (i.e., R1, R2, and R3) were individually paired with donor cell samples (i.e., D1, D2, and D3) and the pairs co-cultured in a transwell culture cell for four weeks. The morphology of the cells was studied at 2 weeks into the co-culture and at 4 weeks of co-culture. Gene expression arrays, protein arrays, and telomere length experiments compared freshly defrosted cells from the collection tubes (referred to as the baseline donor cell sample or baseline receiver cell sample) with cells at the 4-week study endpoint (referred to as restored cell samples).
# Protein array analyses were carried out using conditioned media from the baseline donor cell sample or baseline receiver cell sample. The conditioned media was mixed with like cellular protein extracts and applied to the custom-designed arrays which consisted of antibody probes for 68 factors linked to cellular aging and senescence, collectively referred to as the senescence-associated secretory factors (SASF). Quantitative PCR gene array analyses were carried out by extracting RNA from the baseline samples or the co-cultured donor and receiver samples. The data presented represents the average metric determined for either the baseline donor cell sample, the baseline receiver cell sample, or the restored cell sample.
# The nature of the soluble particles passing through the permeable membrane in the transwell co-culture experiments was investigated. Specifically, transwell co-culture experiments were carried out in the presence or absence of manumycin. Manumycin, -[(1S,5S,6R)-5-hydroxy-5-[(1E,3E,5E)-7-[(2-hydroxy-5-oxo-1-cyclopenten-1-yl)amino]-7-oxo-1,3,5-heptatrien-1-yl]-2-oxo-7-oxabicyclo[4.1.]hept-3-en-3-yl]-2E,4E,6R-trimethyl,2,4-decadienamide, is an antibiotic that acts a potent and selective farnesytransferase inhibitor. Mannumycin is also known to inhibit the release of exosomes. […] Further support for the role of exosome/microvesicles in mediating the disclosed cellular restoration process is shown in FIG. 36.
# Method for aged MPB: TNC vials were quickly thawed at 37° C. and cells added dropwise 1:10 to pre-warmed RPMI-1640 equilibration solution containing 5% HSA, 30 U/mL DNase I (Sigma), 5 mM MgCl2 and 5 mM CaCl2), and incubated at 37° C. for 3-4 hrs. After equilibration, cells were pelleted, washed in RPMI-1640 with 2% BSA and resuspended in complete media containing 10% FBS. Cells were seeded at densities of 10 or 30×10^6 cells/well in 12- or 6-well plates, respectively, containing 0.4 μm transwell inserts (BD Falcon). Heterochronic cultures were established with young cells in the upper chamber and aged cells in the lower chamber. Cells were incubated at 37° C. for 7 days, with 15% of culture media replenished with fresh media on the 4th day. On the 7th day, cells were harvested by centrifugation and evaluated.
# Non-adherent cells from LTC-IC assays, as well as cells from isochronic and heterochronic cultures, were studied for progenitors in short-term methylcellulose culture using a CFU-GM readout. Briefly, cultures were initiated by seeding 150 cells/mm^2 in clonogenic media containing 3 U/mL of rhGM-CSF (R&D Systems). After 10 days, cultures were scored by a single blinded observer, and colonies enumerated for CFU-GM.
compound,measurement,setting,value
CC(NS(=O)(=O)c1ccc2[nH]c(=O)c(=O)[nH]c2c1)C(=O)O (centres unmarked) [BCI-137],exosome production and total RNA content,[1],minimal effect
same,small and miRNA payload of exosomes,[1],depleted
same,aged MPB clonogenicity,aged MPB; inhibitor added to heterochronic cultures upon initial seeding,significant decrease
Nc1c(S(=O)(=O)O)cc(S(=O)(=O)[O-])c2cccc(O)c12.[Na+] [FT-0640107],cell number,"Aged TNCs; 1 μM, 72 hours, vs vehicle control and high dose (25 μM), donor A04",increase in cell number
same,viability at 1 µM,"Aged TNCs; Homo sapiens, 1 μM, 72 hours, donor A04",96.3%
same,viability at 25 µM,"Aged TNCs; Homo sapiens, high dose of 25 μM, 72 hours, donor A04",93%
same,cell viability and cell number,"Aged TNCs; donor A03, 48 or 72 hour timepoints",no significant difference
O=C(/C=C/c1ccc(/C=C/C(=O)Nc2ccc(C3=NCCN3)cc2)cc1)Nc1ccc(C2=NCCN2)cc1 [GW4869],toxicity to the aged cultures,aged MPB,extremely toxic
same,restorative phenotype,aged MPB; blocking global exosome production (data not shown),abrogated
"miR-1303: miRNA (miR-1303), UUUAGAGACGGGGUCUUGCUCU (listed as RNA, chemistry not fully specified; listed as Homo sapiens)",aged colony formation,aged cells,significant effect
"CCCC[C@@H](C)/C=C(C)/C=C(\C)C(=O)NC1=C[C@@](O)(/C=C/C=C/C=C/C(=O)NC2=C(O)CCC2=O)[C@@H]2O[C@@H]2C1=O [manumycin, -[(1S,5S,6R)-5-hydroxy-5-[(1E,3E,5E)-7-[(2-hydroxy-5-oxo-1-cyclopenten-1-yl)amino]-7-oxo-1,3,5-heptatrien-1-yl]-2-oxo-7-oxabicyclo[4.1.]hept-3-en-3-yl]-2E,4E,6R-trimethyl,2,4-decadienamide]",morphology of restored cells,"restored cells; 5 μM, vs absence of manumycin",less robust morphology
same,telomere length of restored cell sample,"restored cells; R1-D1 pair, presence vs absence of manumycin",decreased
same,gene expression of restored cell samples,restored cells; co-cultured in the presence of manumycin,did not display a change in expression levels similar to those observed in the absence of manumycin
same,protein expression (senescence-related factors) of restored cell samples,restored cells; vs co-culture in the absence of manumycin,elevated levels of all proteins investigated

# — US10717981B2, “Therapeutic compositions and methods of making and using the same” (Advanced ReGen Medical Technologies, LLC, priority 2018, dated 2020)
